Among the data in PubChem BioAssay (NCI) are TGI values, retold here.

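Compound exposure: 48 hours, 5 concentrations, 96-well plates. The concentration for full growth arrest is given as TGI.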 A value given as a limit tells only on which side of the number the result lay.

Test systems include ACHN renal; CAKI-1 renal; EKVX NSCLC; HCC-2998 colon; HT29 colon; K-562 leukemia; MDA-N; NCI-H23 lung; NCI-H522 lung; NCI/ADR-RES ovarian; OVCAR-5 ovarian; OVCAR-8 ovarian; PC-3 prostate; SK-MEL-28 melanoma; TK-10 renal; NCI-H226 lung; RXF 393 renal; SNB-75 CNS; U251 CNS; HL-60(TB) leukemia.
Common to all, as to assay: inhibition of tumour cell growth, NCI panel, 48 h

For `COc1cccc(C2c3cc4c(cc3OC(N3CCCC3)C2c2ccccc2)OCO4)c1O` (stereo not drawn), the TGI with ACHN renal is 25.8 µM; in the test with CAKI-1 renal, 7 µM; with EKVX NSCLC, 73.3 µM; in the test on HCC-2998 colon it was 23.9 µM; in the test on HT29 colon, 26.2 µM; in the test with K-562 leukemia it was 42.6 µM. In addition, the TGI with MDA-N was 24.6 µM; in the test with NCI-H23 lung, 36.2 µM; in the test on NCI-H522 lung, 58.4 µM; with NCI/ADR-RES ovarian, 67.2 µM; with OVCAR-5 ovarian, 75.2 µM; in the test with OVCAR-8 ovarian, 61.2 µM. Also, the TGI was 27 µM in the test on PC-3 prostate, 28.1 µM with SK-MEL-28 melanoma and 73.6 µM in the test with TK-10 renal.

For `CSCCCNC(=O)c1csc(-c2csc(CCNC(=O)CNC(=O)OC(C)(C)C)n2)n1`, the TGI in the test on ACHN renal, in the test with CAKI-1 renal, in the test on EKVX NSCLC, in the test on HCC-2998 colon, in the test with HT29 colon and in the test on K-562 leukemia was greater than 100 µM throughout. Further, the TGI with MDA-N, in the test with NCI-H226 lung, in the test on NCI-H23 lung, in the test with NCI-H522 lung, in the test with NCI/ADR-RES ovarian and in the test on OVCAR-5 ovarian was greater than 100 µM each time. Also, the TGI with OVCAR-8 ovarian, with PC-3 prostate, in the test on RXF 393 renal, with SK-MEL-28 melanoma, in the test on SNB-75 CNS and in the test with TK-10 renal was greater than 100 µM in each case. Further, in the test with U251 CNS, the TGI was greater than 100 µM.

In the case of `CCc1cccc(CC)c1Nc1nc(-c2ccccc2-c2ccccc2)cs1`, the TGI in the test on ACHN renal, with CAKI-1 renal, in the test with EKVX NSCLC, in the test with HCC-2998 colon, in the test on HL-60(TB) leukemia and in the test on K-562 leukemia was greater than 100 µM in each case. The TGI in the test on MDA-N, in the test on NCI-H23 lung, with NCI-H522 lung, in the test with OVCAR-5 ovarian, in the test with PC-3 prostate and with RXF 393 renal was greater than 100 µM throughout. In addition, the TGI with SK-MEL-28 melanoma, with SNB-75 CNS, in the test on TK-10 renal and in the test with U251 CNS was greater than 100 µM throughout.

In the case of `CCOP(=O)(OCC)/C(C#N)=C/c1cccn1C`, the TGI with ACHN renal, in the test on CAKI-1 renal, in the test with EKVX NSCLC, in the test on HCC-2998 colon, with HT29 colon and in the test on MDA-N was greater than 100 µM throughout. Moreover, the TGI in the test on NCI-H226 lung, in the test on NCI-H23 lung, with NCI-H522 lung, in the test with NCI/ADR-RES ovarian, in the test with OVCAR-5 ovarian and in the test with OVCAR-8 ovarian was greater than 100 µM throughout. For the same compound, the TGI in the test on PC-3 prostate, with RXF 393 renal, in the test with SK-MEL-28 melanoma, with SNB-75 CNS, in the test on TK-10 renal and in the test on U251 CNS was greater than 100 µM in each case.

As to `O=C1CSc2ccnc(=O)n21`, the TGI in the test on ACHN renal, with CAKI-1 renal, in the test with EKVX NSCLC, with HCC-2998 colon, in the test on HL-60(TB) leukemia and in the test with MDA-N was greater than 100 µM each time. For the same compound, the TGI with NCI-H23 lung, with NCI-H522 lung, in the test on OVCAR-5 ovarian, with OVCAR-8 ovarian, in the test on PC-3 prostate and in the test with RXF 393 renal was greater than 100 µM throughout. The TGI in the test with SK-MEL-28 melanoma, in the test with SNB-75 CNS, with TK-10 renal and in the test with U251 CNS was greater than 100 µM each time.

Consider `O=C1NCC2(CCN(CC3COc4ccccc4O3)CC2)N1c1ccccc1` (stereo not drawn), for which the TGI in the test with ACHN renal, with CAKI-1 renal, with EKVX NSCLC, in the test with HCC-2998 colon, with HL-60(TB) leukemia and with HT29 colon was greater than 100 µM in each case. Moreover, the TGI with K-562 leukemia, in the test on NCI-H226 lung, in the test with NCI-H23 lung, with NCI-H522 lung, in the test on NCI/ADR-RES ovarian and in the test with OVCAR-5 ovarian was greater than 100 µM throughout. Further, the TGI with OVCAR-8 ovarian, in the test on PC-3 prostate, in the test with RXF 393 renal, in the test with SK-MEL-28 melanoma, in the test on SNB-75 CNS and in the test on TK-10 renal was greater than 100 µM throughout. Further, in the test on U251 CNS, the TGI was greater than 100 µM.

Regarding `O=[N+]([O-])/C(C(Cl)=C(Cl)Cl)=C(\NCc1ccccc1)Sc1ccccc1`, the TGI with ACHN renal, with CAKI-1 renal, with EKVX NSCLC, with HCC-2998 colon, in the test on HT29 colon and in the test on K-562 leukemia was greater than 100 µM throughout. For the same compound, the TGI with MDA-N is greater than 100 µM; in the test with NCI-H226 lung, 98.3 µM; with NCI-H23 lung, 40.1 µM; with NCI/ADR-RES ovarian, 69.7 µM; in the test on OVCAR-5 ovarian, greater than 100 µM; in the test with OVCAR-8 ovarian, 32.8 µM. The TGI with PC-3 prostate was greater than 100 µM; in the test with SK-MEL-28 melanoma, 36.8 µM; in the test on SNB-75 CNS, 63.3 µM; in the test with U251 CNS it was greater than 100 µM.

On to `COC(=O)/C=C1/OC(c2ccccc2)=C(Br)C1=O`, for which the TGI in the test on ACHN renal was greater than 100 µM; in the test with CAKI-1 renal, 51.3 µM; with EKVX NSCLC, greater than 100 µM; with HCC-2998 colon it was greater than 100 µM; with HL-60(TB) leukemia it was greater than 100 µM; with HT29 colon it was 50.6 µM. Besides, the TGI is greater than 100 µM in the test on K-562 leukemia; greater than 100 µM with MDA-N; greater than 100 µM in the test with NCI-H226 lung; greater than 100 µM in the test with NCI-H23 lung; 62.2 µM with NCI-H522 lung; greater than 100 µM with OVCAR-5 ovarian. The TGI with OVCAR-8 ovarian, with PC-3 prostate, with RXF 393 renal, in the test with SK-MEL-28 melanoma, with SNB-75 CNS and in the test with TK-10 renal was greater than 100 µM each time. Besides, the TGI in the test with U251 CNS was greater than 100 µM.
